Assay results taken from US20240279241A1, “PYRIDO[4,3-D]PYRIMIDINE COMPOUNDS CAPABLE OF INHIBITING KRAS MUTANT PROTEINS” (Redx Pharma PLC, priority 2021, published 2024).
Like-named read-outs stand apart in the source and are kept apart here.

Key:
Assay type in all cases: biochemical
[1] = target: T1, KRAS WT (Homo sapiens, UniProt P01116); assay: HTRF nucleotide exchange assay (NEA), KRAS WT
T1 construct: Recombinant human RAS protein (2 nM); aa1-188 KRAS WT
Method: (§1) The capacity of compounds to bind KRAS G12D, other KRAS mutants and wildtype RAS isoforms was quantified using a HTRF nucleotide exchange assay. Recombinant human RAS protein (2 nM; aa1-188 KRAS WT, HRAS WT, NRAS WT, or KRAS containing the containing the G12D, G13D or Q61H amino acid substitutions, or 4 nM KRAS; aa1-188 containing the G12V, G12C, G12A or G12S amino acid substitution, an N-terminal 6×His-tag and leader sequence), and 2 nM Europium-labeled anti-6×His antibody were mixed in assay buffer (10 mM HEPES pH7.3, 150 mM NaCl, 5 mM MgCl2, 0.05% BSA, 0.0025% NP-40 and 100 mM KF) with various concentrations of compound in a 384-well plate and a volume of 5 uL. After a 60-minute incubation at room temperature, 5 ul of 200 nM EDA-GTP-DY647P1 (diluted in assay buffer) was added to the plate. Following 30-minute incubation at room temperature, time-resolved fluorescence was measured on a PerkinElmer Envision plate reader. DMSO (0.3%) and unlabeled […] (1 μM) or equivalent tool compound were used to generate the Max and Min assay signals, respectively. Data was analysed using a four-parameter logistic model to calculate IC50 values, with at least two independent replicates were performed for each compound.

[2] = target: T2, KRAS G12C (Homo sapiens, UniProt P01116, G12C); assay: HTRF nucleotide exchange assay (NEA), KRAS G12C
T2 construct: 4 nM KRAS; aa1-188 containing the G12V, G12C, G12A or G12S amino acid substitution
Method: as §1

[3] = target: T3, KRAS G12D (Homo sapiens, UniProt P01116, G12D); assay: HTRF nucleotide exchange assay (NEA), KRAS G12D; conditions: recombinant human KRAS G12D aa1-188, 2 nM; lowest class = % inhibition at 10 μM
T3 construct: Recombinant human RAS protein (2 nM)
Method: as §1

[4] = target: T4, KRAS G12V (Homo sapiens, UniProt P01116, G12V); assay: HTRF nucleotide exchange assay (NEA), KRAS G12V
T4 construct: 4 nM KRAS; aa1-188 containing the G12V, G12C, G12A or G12S amino acid substitution
Method: as §1

[5] = recombinant human KRAS WT aa1-188, 2 nM, lowest class = % inhibition at 10 μM

T3 sequence (P01116 1-188 isoform P01116-2 G12D): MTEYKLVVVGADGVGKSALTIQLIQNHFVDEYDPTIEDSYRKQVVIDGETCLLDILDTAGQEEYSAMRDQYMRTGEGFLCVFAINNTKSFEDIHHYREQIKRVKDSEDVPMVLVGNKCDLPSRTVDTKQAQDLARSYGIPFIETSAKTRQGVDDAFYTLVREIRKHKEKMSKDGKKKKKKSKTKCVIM
T1 sequence (P01116 1-188 isoform P01116-2): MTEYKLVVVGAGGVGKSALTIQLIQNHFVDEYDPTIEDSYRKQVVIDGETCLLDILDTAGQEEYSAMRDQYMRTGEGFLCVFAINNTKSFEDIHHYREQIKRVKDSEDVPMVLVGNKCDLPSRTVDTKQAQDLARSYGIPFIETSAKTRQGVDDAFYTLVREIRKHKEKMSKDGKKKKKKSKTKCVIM
T4 sequence (P01116 1-188 isoform P01116-2 G12V): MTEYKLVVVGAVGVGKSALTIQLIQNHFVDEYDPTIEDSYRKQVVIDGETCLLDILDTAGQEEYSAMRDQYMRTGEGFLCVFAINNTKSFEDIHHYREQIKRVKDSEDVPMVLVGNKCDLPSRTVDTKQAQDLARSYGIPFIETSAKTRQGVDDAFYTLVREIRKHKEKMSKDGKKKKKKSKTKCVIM
T2 sequence (P01116 1-188 isoform P01116-2 G12C): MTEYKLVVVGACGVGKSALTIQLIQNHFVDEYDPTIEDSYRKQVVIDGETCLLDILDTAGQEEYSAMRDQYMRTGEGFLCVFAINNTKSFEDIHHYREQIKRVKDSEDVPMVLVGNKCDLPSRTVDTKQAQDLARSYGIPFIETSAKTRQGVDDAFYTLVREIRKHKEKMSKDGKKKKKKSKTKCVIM

| SMILES | IC50 [1] | IC50 [2] | IC50 [3] | IC50 [4] | IC50 [1, 5] |
| --- | --- | --- | --- | --- | --- |
| C#Cc1c(F)ccc2cc(O)cc(-c3ncc4c(N5CCC(O)CC5)nc(OC[C@@]56CCCN5C[C@H](F)C6)nc4c3F)c12 (relative stereo) [Example 86, 1-[7-(8-ethynyl-7-fluoro-3-hydroxy-1-naphthyl)-8-fluoro-2-[[trans-2-fluoro-1,2,3,5,6,7-hexahydropyrrolizin-8-yl]methoxy]pyrido[4,3-d]pyrimidin-4-yl]piperidin-4-ol] | ≤ 10 nM | ≤ 10 nM | ≤ 10 nM | ≤ 10 nM |  |
| Oc1cc(-c2ncc3c(N4CCC5(CCNC5)CC4)nc(OCC45CCCN4CCC5)nc3c2F)c2ccccc2c1 [Example 2, 4-[4-(2,8-diazaspiro[4.5]decan-8-yl)-8-fluoro-2-(1,2,3,5,6,7-hexahydropyrrolizin-8-ylmethoxy)pyrido[4,3-d]pyrimidin-7-yl]naphthalen-2-ol] | 100 to 10000 nM | 100 to 10000 nM | 100 to 10000 nM |  |  |
| Oc1cc(-c2ncc3c(N4CC5CCC(C4)O5)nc(OCC45CCCN4CCC5)nc3c2F)c2ccccc2c1 [Example 7, 4-[8-fluoro-2-(1,2,3,5,6,7-hexahydropyrrolizin-8-ylmethoxy)-4-(8-oxa-3-azabicyclo[3.2.1]octan-3-yl)pyrido[4,3-d]pyrimidin-7-yl]naphthalen-2-ol] | 100 to 10000 nM | 100 to 10000 nM | 100 to 10000 nM | 100 to 10000 nM |  |
| CC1COCCCN1c1nc(OCC23CCCN2CCC3)nc2c(F)c(-c3cc(O)cc4ccccc34)ncc12 (stereo not shown) [Example 18, 4-[8-fluoro-2-(1,2,3,5,6,7-hexahydropyrrolizin-8-ylmethoxy)-4-(3-methyl-1,4-oxazepan-4-yl)pyrido[4,3-d]pyrimidin-7-yl]naphthalen-2-ol] | 10 to 100 nM | 10 to 100 nM | 10 to 100 nM |  |  |
| O=S1(=O)CCCN(c2nc(OCC34CCCN3CCC4)nc3c(F)c(-c4cc(O)cc5ccccc45)ncc23)CC1 [Example 24, 4-[4-(1,1-dioxo-1,4-thiazepan-4-yl)-8-fluoro-2-(1,2,3,5,6,7-hexahydropyrrolizin-8-ylmethoxy)pyrido [4,3-d]pyrimidin-7-yl]naphthalen-2-ol] | 100 to 10000 nM | 10 to 100 nM | 100 to 10000 nM |  |  |
| Oc1cc(-c2ncc3c(N4CCC5COCC5C4)nc(OCC45CCCN4CCC5)nc3c2F)c2ccccc2c1 (stereo not shown) [Example 51, 4-[4-(3,3a,4,6,7,7a-hexahydro-1H-furo[3,4-c]pyridin-5-yl)-8-fluoro-2-(1,2,3,5,6,7-hexahydropyrrolizin-8-ylmethoxy)pyrido [4,3-d]pyrimidin-7-yl]naphthalen-2-ol] | 100 to 10000 nM | 100 to 10000 nM | 100 to 10000 nM | 100 to 10000 nM |  |
| CC1(C#N)CCN(c2nc(OCC34CCCN3CCC4)nc3c(F)c(-c4cc(O)cc5ccccc45)ncc23)CC1 [Example 63, 1-[8-fluoro-2-(1,2,3,5,6,7-hexahydropyrrolizin-8-ylmethoxy)-7-(3-hydroxy-1-naphthyl)pyrido[4,3-d]pyrimidin-4-yl]-4-methyl-piperidine-4-carbonitrile] | 100 to 10000 nM |  | 100 to 10000 nM |  |  |
| Oc1cc(-c2ncc3c(N4CC5CC4CC5O)nc(OCC45CCCN4CCC5)nc3c2F)c2ccccc2c1 (stereo not shown) [Example 66, 2-[8-fluoro-2-(1,2,3,5,6,7-hexahydropyrrolizin-8-ylmethoxy)-7-(3-hydroxy-1-naphthyl)pyrido[4,3-d]pyrimidin-4-yl]-2-azabicyclo[2.2.1] heptan-5-ol] | 100 to 10000 nM |  | 100 to 10000 nM |  |  |
| Oc1cc(-c2ncc3c(N4CC5CC(C4)C5O)nc(OCC45CCCN4CCC5)nc3c2F)c2ccccc2c1 (stereo not shown) [Example 71, 3-[8-fluoro-2-(1,2,3,5,6,7-hexahydropyrrolizin-8-ylmethoxy)-7-(3-hydroxy-1-naphthyl)pyrido[4,3-d]pyrimidin-4-yl]-3-azabicyclo[3.1.1] heptan-6-ol] | 100 to 10000 nM |  | 100 to 10000 nM |  |  |
| Oc1cc(-c2ncc3c(N4CCC5CCC(C4)O5)nc(OCC45CCCN4CCC5)nc3c2F)c2ccccc2c1 (stereo not shown) [Example 80, 4-[8-fluoro-2-(1,2,3,5,6,7-hexahydropyrrolizin-8-ylmethoxy)-4-(9-oxa-3-azabicyclo[4.2.1]nonan-3-yl)pyrido [4,3-d]pyrimidin-7-yl]naphthalen-2-ol] | 100 to 10000 nM |  | 100 to 10000 nM |  |  |
| Fc1c(-c2cccc3[nH]ncc23)ncc2c(N3CCCOCC3)nc(OCC34CCCN3CCC4)nc12 [Example 92, 4-[8-fluoro-2-(1,2,3,5,6,7-hexahydropyrrolizin-8-ylmethoxy)-7-(1H-indazol-4-yl)pyrido[4,3-d]pyrimidin-4-yl]-1,4-oxazepane] |  |  | 100 to 10000 nM |  | > 10000 nM |
| Nc1nc2c(-c3ncc4c(N5CCCOCC5)nc(OCC56CCCN5CCC6)nc4c3F)cccc2s1 [Example 93, 4-[8-fluoro-2-(1,2,3,5,6,7-hexahydropyrrolizin-8-ylmethoxy)-4-(1,4-oxazepan-4-yl)pyrido[4,3-d]pyrimidin-7-yl]-1,3-benzothiazol-2-amine] | 100 to 10000 nM |  | 100 to 10000 nM |  |  |
| Fc1c(-c2cccc3[nH]ncc23)ncc2c(N3CCCOCC3)nc(OC[C@@]34CCCN3C[C@H](F)C4)nc12 [Example 95, 4-[8-fluoro-7-(1H-indazol-4-yl)-2-[[trans-2-fluoro-1,2,3,5,6,7-hexahydropyrrolizin-8-yl]methoxy]pyrido[4,3-d]pyrimidin-4-yl]-1,4-oxazepane] |  |  | 100 to 10000 nM |  | > 10000 nM |

Now from value to compound:

| IC50 [1] | IC50 [2] | IC50 [3] | IC50 [4] | IC50 [1, 5] | SMILES |
| --- | --- | --- | --- | --- | --- |
| 100 to 10000 nM | 100 to 10000 nM | 100 to 10000 nM | 100 to 10000 nM |  | Oc1cc(-c2ncc3c(N4CCOCC4)nc(OCC45CCCN4CCC5)nc3c2F)c2ccccc2c1 [Example 5, 4-[8-fluoro-2-(1,2,3,5,6,7-hexahydropyrrolizin-8-ylmethoxy)-4-(morpholin-4-yl)pyrido[4,3-d]pyrimidin-7-yl]naphthalen-2-ol] |
| 100 to 10000 nM | 100 to 10000 nM | 100 to 10000 nM | 100 to 10000 nM |  | CC1CN(c2nc(OCC34CCCN3CCC4)nc3c(F)c(-c4cc(O)cc5ccccc45)ncc23)CCO1 (stereo not shown) [Example 6, 4-[8-fluoro-2-(1,2,3,5,6,7-hexahydropyrrolizin-8-ylmethoxy)-4-(2-methylmorpholin-4-yl)pyrido[4,3-d]pyrimidin-7-yl]naphthalen-2-ol] |
| 100 to 10000 nM | 100 to 10000 nM | 10 to 100 nM | 100 to 10000 nM |  | COCCCNc1nc(OCC23CCCN2CCC3)nc2c(F)c(-c3cc(O)cc4ccccc34)ncc12 [Example 11, 4-[8-fluoro-2-(1,2,3,5,6,7-hexahydropyrrolizin-8-ylmethoxy)-4-(3-methoxypropylamino)pyrido[4,3-d]pyrimidin-7-yl]naphthalen-2-ol] |
| 100 to 10000 nM | 100 to 10000 nM | 100 to 10000 nM |  |  | COC(=O)CCNc1nc(OCC23CCCN2CCC3)nc2c(F)c(-c3cc(O)cc4ccccc34)ncc12 [Example 25] |
| 100 to 10000 nM | 100 to 10000 nM | 100 to 10000 nM |  |  | CSCCCNc1nc(OCC23CCCN2CCC3)nc2c(F)c(-c3cc(O)cc4ccccc34)ncc12 [Example 26, 4-[8-fluoro-2-(1,2,3,5,6,7-hexahydropyrrolizin-8-ylmethoxy)-4-(3-methylsulfanylpropylamino)pyrido[4,3-d]pyrimidin-7-yl]naphthalen-2-ol] |
| 100 to 10000 nM | 100 to 10000 nM | 100 to 10000 nM |  |  | COCCCN(C)c1nc(OCC23CCCN2CCC3)nc2c(F)c(-c3cc(O)cc4ccccc34)ncc12 [Example 28, 4-[8-fluoro-2-(1,2,3,5,6,7-hexahydropyrrolizin-8-ylmethoxy)-4-[3-methoxypropyl(methyl)amino]pyrido[4,3-d]pyrimidin-7-yl]naphthalen-2-ol] |
| 100 to 10000 nM |  | 100 to 10000 nM |  |  | CC(=O)OCCCNc1nc(OCC23CCCN2CCC3)nc2c(F)c(-c3cc(O)cc4ccccc34)ncc12 [Example 64, 3-[[8-fluoro-2-(1,2,3,5,6,7-hexahydropyrrolizin-8-ylmethoxy)-7-(3-hydroxy-1-naphthyl)pyrido[4,3-d]pyrimidin-4-yl]amino]propyl acetate] |
| 100 to 10000 nM |  | 100 to 10000 nM |  |  | NS(=O)(=O)CCCNc1nc(OCC23CCCN2CCC3)nc2c(F)c(-c3cc(O)cc4ccccc34)ncc12 [Example 67] |
| 100 to 10000 nM |  | 100 to 10000 nM |  |  | CC1CN(c2nc(OCC34CCCN3CCC4)nc3c(F)c(-c4cc(O)cc5ccccc45)ncc23)CCC1O (stereo not shown) [Example 68, 1-[8-fluoro-2-(1,2,3,5,6,7-hexahydropyrrolizin-8-ylmethoxy)-7-(3-hydroxy-1-naphthyl)pyrido[4,3-d]pyrimidin-4-yl]-3-methyl-piperidin-4-ol] |
| 100 to 10000 nM |  | 10 to 100 nM |  |  | CC1CC(O)CCN1c1nc(OCC23CCCN2CCC3)nc2c(F)c(-c3cc(O)cc4ccccc34)ncc12 (stereo not shown) [Example 69, 1-[8-fluoro-2-(1,2,3,5,6,7-hexahydropyrrolizin-8-ylmethoxy)-7-(3-hydroxy-1-naphthyl)pyrido[4,3-d]pyrimidin-4-yl]-2-methyl-piperidin-4-ol] |
